The values that follow are results of earlier work, collected in US10632107B2, “Crystalline forms of benzoquinoline inhibitors of vesicular monoamine transporter 2” (Apotex Inc., priority 2018, dated 2020).

Molecules are shown by their SMILES. Read-outs that look alike come from different tables or passages of the source.

Regarding `COc1cc2c(cc1OC)C1CC(=O)C(CC(C)C)CN1CC2` (racemic) [Tetrabenazine, rel-(3R,11bR)-1,3,4,6,7,11b-hexahydro-9,10-dimethoxy-3-(2-methylpropyl)-2H-benzo[a]quinolizin-2-one], the solubility entry runs as follows: (low pH of the stomach) “slight solubility”; (pH values of greater than 4) “practically insoluble”.
